EP0964864B1, “PYRIDO 2,3-D PYRIMIDINES AND 4-AMINOPYRIMIDINES AS INHIBITORS OF CELLULAR PROLIFERATION” (priority 1997, dated 1998)
pIC50: −log10 of the molar value.

How the values were obtained:
[1] = target: PDGF-β receptor tyrosine kinase; assay: PDGF receptor tyrosine kinase assay; type: biochemical, mouse
[2] = target: FGF-1 (flg) receptor tyrosine kinase; assay: FGF receptor tyrosine kinase assay; type: biochemical, human

Question: What does the source list for `CCNc1nc(Nc2ccccc2)ncc1C=CC(=O)OCC` [Example 17, Ethyl 3-(4-Ethylamino-2-phenylamino-pyrimidin-5-yl)acrylate]?
Answer: pIC50 [1]: 5.43; pIC50 [2]: 5.35
